Source: patent US9737525B2, “Small molecule activators of NRF2 pathway” (The General Hospital Corporation, priority 2013, dated 2017)

Experiments:
[1] = tested on: dopaminergic neurons; test: MPTP mouse model of Parkinson's disease; format: in vivo
Method: Male C57BL/6 mice (˜25 g) from Charles River Laboratories, Wilmington, Mass. were housed in temperature- and humidity-controlled rooms with a 12 hr dark: light cycle and had free access to food and water. Subacute MPTP paradigm (20 mg/kg i.p. injection once daily for 4 days) was employed to test dose response of MIND4 at 30 mg/kg, 60 mg/kg, or 90 mg/kg (i.p. 10 min before and 50 min after each MPTP injection). The effective dose of 60 mg/kg was used in the subsequent experiments (i.p. 10 min before and 50 min after each MPTP injection). Control animals received saline (control for MPTP) and 10% propylene glycol and 90% dextrose as vehicle for MIND4 by i.p. Mice were sacrificed 7 days after the last MPTP administration and striatal DA and metabolite HVA were determined by high performance liquid chromatography (HPLC) coupled with electrochemical detection (ECD) Immunostaining for tyrosine hydroxylase (TH), a marker for dopaminergic neurons was performed using mouse anti-TH antibody (Sigma, ST. Louis, Mo.). Total numbers of TH positive neurons in the substantia nigra (SN) were counted under blinded conditions using the Bioquant Image Analysis System (R&M Biometrics, Nashville, Tenn.).
The protective effects of CPD4 have been confirmed in both acute and subchronic PTP paradigms by comprehensive behavioral, neurochemical, and neuropathological evaluations (FIG. 18). CPD4 was administrated i.p. at 20 mg/kg 10 min before and 50 min after MPTP 20 mg/kg i.p. once daily for 4 days (subchronic regimen) (FIG. 18A). High performance liquid chromatography (HPLC) coupled with electrochemical detection was used to show attenuated dopamine (DA) loss induced by MPTP in the striatum (FIG. 18B). Dopaminergic cell counts in the substantia nigra (SN) were also measured in treated mice and compared to the control (MPTP group) (FIG. 18C). Tyrosine hydroxylase (TH) immunostained dopaminergic neurons were also imaged in the SN (FIG. 18D).

[2] = tested on: Drosophila expressing mutant Htt exon 1; test: Drosophila model of HD, photoreceptor neuron (rhabdomere) survival; format: in vivo; settings: 10 μM, treated vs. untreated flies, day 7 after eclosion
Method: Compound treatment of Drosophila HD model and efficacy analysis of MIND4 effects on photoreceptor neurons was performed as described (Steffan et al., 2001; Pallos et al., 2008). Drosophila models have been important in the genetic identification of pathological and neuroprotective mechanisms as well as for testing therapeutic candidates in HD (Marsh et al., 2003). In wild type flies, seven rhabdomeres (photoreceptor neurons) are visible in the adult eye, whereas chronic expression of mHTTex1 causes progressive degeneration of these neurons, detected as a reduction of rhabdomere number. Rhabdomeres were counted on day 7 after eclosion in animals treated with varying doses of MIND4. The indicated numbers of flies were scored for each condition (n) with the number of ommatidia scored indicated in parentheses. Trial 1: DMSO=11(449); MIND4 1 μM=3(112); MIND4 10 μM=9(337); […]=9(364). […]
MIND4 was tested for its potential efficacy by monitoring the degeneration of photoreceptor neurons in the eyes of Drosophila expressing expanded repeat HTT exon 1 protein in all neurons beginning during embryogenesis (Steffan et al., 2001). […] Chronic expression of mutant HTT causes progressive degeneration of these neurons, detected as a reduction of rhabdomeres number. Rhabdomeres were counted on day 7 after eclosion in animals treated with varying doses of MIND4. […]

[3] = tested on: primary microglia; test: IL-6 release from primary microglia of wild type and YAC128 mice (ELISA); format: cell-based, mouse; settings: CSE and INF-γ stimulated wild type and YAC128 microglia
Method: Whole brains were obtained from post-natal 1 to 3 day old wild type and YAC128 mouse pups on the FVB/N strain background and placed in Hanks Balanced Salt Solution (HBSS; Invitrogen) on ice. Meninges were removed and the remaining brain tissue was placed into growth medium (DMEM [Invitrogen], 10% FBS [PAA], 1% L-glutamine [Invitrogen], 1% penicillin/streptomycin [Invitrogen]), and homogenized using a 5 ml pipette. Cells of each brain were pelleted, re-suspended in growth medium and transferred into a T150 flask, cultured at 37° C. with 5% CO2. Growth medium was replaced after 24 hr and then every 7 days. After 18 to 21 days in culture, loosely attached microglia were harvested and seeded at 1.4×10^5 cells/ml with pre-incubated conditioned media into 96-well PRIMARIA™ tissue culture plates (BD Falcon). Adherent astrocytes were plated at 1.4×10^5 cells/ml in 10% FBS media for 24 hr in 96-well PRIMARIA™ tissue culture plates. After the initial isolation microglia and astrocytes were seeded at a density of 1.4×10^5 cells/ml into 96-well PRIMARIA™ tissue culture plates. […] Cells were lysed and total protein levels were determined using the microBCA kit (Thermo Scientific). Supernatants were analyzed using mouse IL-6 ELISA (e-Biocience) and IL-6 levels were normalized to total protein levels.

Compound | MPTP induced DA loss in the striatum ([1]; 60 mg/kg i.p.) | Residual DA and DA turnover rate (HVA/DA) ([1]; 60 mg/kg vs MPTP group) | Dopaminergic neurons in the SN (stereological analysis) ([1]; vs MPTP alone group) | Relative rescue of photoreceptor neurons, Trial 1 [2] [%] | Relative rescue of photoreceptor neurons, Trial 2 [2] [%] | IL-6 secretion [3]
O=[N+]([O-])c1ccc(Sc2nnc(COc3ccccc3)n2-c2ccccc2)c2ncccc12 [MIND4, 5-nitro-8-{[5-(phenoxymethyl)-4-phenyl-4H-1,2,4-triazol-3-yl]thio}quinoline] | mild but significant protection | increased level of residual DA and decreased DA turnover rate | more remaining dopaminergic neurons | 22.6 | 20.7 | –
O=[N+]([O-])c1ccc(Sc2nnc(COc3ccccc3)n2-c2ccccc2)nc1 [MIND4-17] | – | – | – | – | – | reduced the amount of IL-6 secreted
